The values below come from US20050170359A1, “Treatment of vascular dysfunction and alzheimer's disease” (priority 2002, published 2005).

Each structure is given as a SMILES string. Entries after “also recorded” stand apart in the source; their conditions may differ. Peptide text beside a SMILES is read from it. * marks the point of attachment. Cbz = O=C(OCc1ccccc1)*; CH2F = FC*

For one data set, the system named is BEC. Nature of the data set: H2O2 model of stress-induced premature senescence in young human BEC. Format: cell-based. On the procedure:
Subconfluent BEC cultures (34 days after subculture) were treated with H2O2 by adding it to the culture medium for 2 hr. To induce senescence, sublethal doses of H2O2 were determined and selected. After treatment, cells were washed with PBS (37° C.) before harvesting, subculturing or incubating with a fresh medium or 3-D collagen gels. H2O2-treated cells were subcultured and analyzed after 1, 2, 3, 4, 5, 6, 24, 48, 72, 96 and 120 hr for expression of different proteins involved in the cell cycle regulation and apoptosis. Cells in 60 mm dishes were lysed in SDS sample buffer directly. For Western blot analysis, proteins were separated by SDS-PAGE and transferred to PVDF membrane followed by incubation with different primary antibodies (see antibodies for.Western blot analysis). SIPS BEC were also prepared for microarray analysis on U95A chips as described above.

In a further data set the test system is SIPS BEC. As to the kind of experiment: Capillary morphogenesis in 3-D collagen gels by H2O2 stress-induced premature senescence (SIPS) BEC. In kind it is cell-based, human. On the procedure: The 3-D system has been described in detail by Davis et al. (J. Cell Sci. 114:917-930, 2001). Here, the system was used to assay the responsiveness of AD BEC and SIPS BEC to angiogenic stimulation. Briefly, 10^6 MBEC/ml were suspended within 3-D collagen matrices at 25 μl per well in the serum-free culture medium 199 containing VEGF (40 ng/ml) and bFGF (40 ng/ml) in 5% CO2 at 37° C. The cells were fixed with 3% glutaraldehyde in phosphate buffered saline. The sections were stained with hematoxylin/eosin and Hoechst 33342. The formation of intracellular vacuoles (stage I), tubules (stage II), and multicellular tubes and networks (stage III) were determined at 4 hr to 16 hr and 24 hr, respectively. The number of apoptotic cells were determined between 4 hr and 24 hr using double TUNEL/Hoechst staining. At least 200 cells were evaluated from an individual well. […] was quantified at 200 X magnification by counting four fields derived from triplicate wells. Subconfluent BEC cultures (34 days after subculture) were treated with H2O2 by adding it to the culture medium for 2 hr. To induce senescence, sublethal doses of H2O2 were determined and selected. […] H2O2-treated cells were subcultured and analyzed after 1, 2, 3, 4, 5, 6, 24, 48, 72, 96 and 120 hr for expression of different proteins involved in the cell cycle regulation and apoptosis. […]

Another data set has as its system AMC BEC. As to the kind of experiment: Tube formation in 2-D collagen matrigels, age-matched control BEC. In kind it is cell-based, human. To be noted: 10 μM. On the procedure: In 3D collagen gels (as described in FIG. 1), BEC that reached greater than 90% replicative senescence (RS) or were exposed to H2O2 (SIPS) formed an insignificant number of tubes (FIGS. 11A-11B, bar=50 μm). Total tube length—control BEC (arbitrarily taken as 100%) were compared to RS and SIPS BEC (FIG. 11C). The effect of SB202190 (SB, 10 μM for 1 hr) on SIPS-induced aberrant angiogenesis. Mean±s.e., n=9 assays per group from three different cases/group. In 2D collagen matrigels (growth factors per BD Biosciences, Bedford, Mass.), SB202190 (SB, 10 μM) increased the number of tubes in early passage AD BEC (FIGS. 11D-11E, bar=50 μm). SB202190 (SB, 10 μM) increases total tube length in both AMC and AD BEC (FIG. 11F). Mean±s.e., n=6-9 assays per group from two AMC and three AD cases.
In the 2-D system, collagen matrigels of matrix composition containing a supplement of growth factors were used according to manufacturer's instructions (BD Biosciences, Bedford, Mass.). In the 2-D matrix system, 2×10^4 cells/well were plated.
(§1) ZVAD-fmk (50 μM, Sigma), p38 MAPK antagonists including SB SB202190 (SB, 10 μM), and plasma-derived activated protein C (APC, prepared by Dr. J. H. Griffin's laboratory, 5-100 nM) were used.

Data set [1] deals with AD BEC. As to the kind of experiment: Tube formation in 2-D collagen matrigels, AD BEC. Format: cell-based, human. To be noted: 10 μM. On the procedure:
AD or age-matched control (AMC) BEC (2×10^4 cells/well) were plated in 2-D collagen matrigels (growth factors per BD Biosciences, Bedford, Mass.) and treated with 100 nM APC or vehicle (−APC). Total tube length was determined at 24 hr (FIG. 6A). Mean±s.e., n=30 to 40 assays per group from four AD and three AMC cases. AD or AMC BEC were treated with 100 nM APC, 100 nM boiled (B) APC, 100 nM serine mutant (M) APC, or vehicle (−APC) for 24 hr. Total tube length was determined at 24 hr (FIG. 6B). Mean±s.e., n=10 assays per group from one AD and one AMC case. % TUNEL-positive BEC at 4 hr during AD-mediated or AMC-mediated capillary morphogenesis in the presence of 100 nM APC or vehicle (−APC) was calculated (FIG. 6C). Mean±s.e., n=20 assays per group from two AD and two AMC cases. % Caspase-3-positive BEC at 4 hr of brain capillary morphogenesis in AD or AMC treated with 100 nM APC or vehicle (−APC) was calculated (FIG. 6D). Mean±s.e., n=20 assays per group from two AD and two AMC cases. AD BEC (3×10^4) cells were assayed for migration in a modified Boyden chamber in the presence of vehicle (−APC), 100 nM APC, anti-APC C3 monoclonal antibody (200 μg/ml), or anti-APC+APC after 6 hr of incubation (FIG. 6E). Mean±s.e., n=6 assays per group from two AD cases. […]

In data set [2] the test system is AD BEC. Nature of the data set: Apoptosis (TUNEL, caspase-3 positive cells) during AD BEC-mediated capillary morphogenesis. Format: cell-based, human. On the procedure: (§2) The 3-D system has been described in detail by Davis et al. (J. Cell Sci. 114:917-930, 2001). Here, the system was used to assay the responsiveness of AD BEC and SIPS BEC to angiogenic stimulation. Briefly, 10^6 MBEC/ml were suspended within 3-D collagen matrices at 25 μl per well in the serum-free culture medium 199 containing VEGF (40 ng/ml) and bFGF (40 ng/ml) in 5% CO2 at 37° C. The cells were fixed with 3% glutaraldehyde in phosphate buffered saline. The sections were stained with hematoxylin/eosin and Hoechst 33342. The formation of intracellular vacuoles (stage I), tubules (stage II), and multicellular tubes and networks (stage III) were determined at 4 hr to 16 hr and 24 hr, respectively. The number of apoptotic cells were determined between 4 hr and 24 hr using double TUNEL/Hoechst staining. At least 200 cells were evaluated from an individual well. […] was quantified at 200 X magnification by counting four fields derived from triplicate wells.
Staining with APO-BRDU kit was performed according to manufacturer's instructions (Phoenix Flow Systems).

Data set [3] has as its system AD BEC. Nature of the data set: Brain capillary morphogenesis in 3-D collagen matrices (VEGF/bFGF) mediated by AD BEC. In kind it is cell-based, human. To be noted: zVAD-fmk 50 μM, 24 hr, VEGF and bFGF 40 ng/ml. On the procedure: as §2, §1
The next data set has as its system caspase 3. As to the kind of experiment: Western blot of activated caspase-3 in AD BEC lysates during capillary morphogenesis. In kind it is cell-based, human. To be noted: zVAD-fmk 50 μM, 24 hr. On the procedure: Cell lysates were prepared from subconfluent BEC cultures, BEC at different stages of capillary morphogenesis or BEC exposed to SIPS (see below H2O2 model of SIPS). Antibodies for Western blot analysis included caspase 3, rabbit anti-human polyclonal, 1:100 (0.5 mg/ml, BD PharMingen); p53, mouse anti-human monoclonal, 1:200 (0.1 mg/ml, Oncogene); p16, mouse anti-human monoclonal, 1:250 (0.5 mg/ml, BD ParMingen); p21, mouse anti-human, 1:200 (0.4 mg/ml, Oncogene); Rb (Santa Cruz), p27 (Santa Cruz), fibronectin (Santa Cruz), PAI-1 (Santa Cruz) or phosphorylated p38 MAPK; gax, rabbit polyclonal against C-terminal region of the rat gax protein (amino acids SDHSSEHAHL), 1:500 (7 mg/ml, provided by Dr Kenneth Walsh); and β-actin, goat anti-human polyclonal, 1:2,500 (0.2 mg/ml, Santa Cruz Biotechnology). The secondary antibody was HRP-conjugated and peroxidase activity was detected with enhanced chemiluminescence detection kit (ECL, Pierce). The relative abundance of the primary antigen was determined by scanning densitometry using β-actin as an internal control.
(A western blot detects proteins with antibodies after separation by electrophoresis.)

On to `OO` [H2O2], for which, in the data set with BEC (300 μM for 2 hr, within 48 hr), the “senescent phenotype (G1 arrest, flattened morphology, SA-β-gal)” value is given as “developed a senescent phenotype”. The BEC apoptosis entry with BEC (concentrations higher than 300 μM, not shown) is on record as “resulted in BEC apoptosis”. In addition, the “number of tubes formed by H2O2-treated (SIPS) BEC” value with SIPS BEC (compared to untreated normal control cells) is given as “form an insignificant number of tubes”.

On to `Oc1ccc(-c2nc(-c3ccncc3)c(-c3ccc(F)cc3)[nH]2)cc1` [SB202190], for which, in the data set on AMC BEC, the “total tube length, AMC BEC” value was “increases”. In addition, in the data set on AD BEC [1], the “number of tubes in early passage AD BEC” value is “completely restored; also recorded: increased” and the “total tube length, AD BEC” value is “increases”. The “augmentation of total tube length in the SIPS model” value in the data set on SIPS BEC (preincubation 10 μM for 1 hr, 3D collagen gels) is reported as roughly 5 fold.

With `COC(=O)C[C@H](NC(=O)[C@H](C)NC(=O)[C@@H](NC(=O)OCc1ccccc1)C(C)C)C(=O)CF` [zVAD-fmk] (Cbz-Val-Ala-Asp(OMe)-CH2F), the “apoptosis in AD BEC” value with AD BEC [2] (during AD BEC-mediated capillary morphogenesis) was “prevents apoptosis”. In the data set with AD BEC [2] (zVAD, data not shown), the “number of apoptotic AD BEC by TUNEL staining” value was “decreased”. Also, the number of tubes entry in the data set with AD BEC [3] is on record as “restored”; in the data set on AD BEC [3] (listed as zVAD), “restoration”. The total tube length result was “restored” with AD BEC [3] and “restoration” in the data set on AD BEC [3] (listed as zVAD). Moreover, the “levels of activated form of caspase-3” value with caspase 3 was “preventing the formation of the active form of caspase 3; also recorded: reduced”.
